ChEMBL document CHEMBL5505953, “Facilitating the development of molecular glues: Opportunities from serendipity and rational design” (Eur J Med Chem, 2024)
One block for each molecule: values may come before it.

Columns and labels:
[1] = target: Protein cereblon/Zinc finger protein Helios (Homo sapiens, UniProt Q96SW2+Q9UKS7); settings: hek293t
Estrogen receptor = Estrogen receptor (Homo sapiens, UniProt P03372)
MDA-MB-231 = assay: cells; settings: Homo sapiens, MDA-MB-231, 48 h
HCC38 = assay: cells; settings: Homo sapiens, HCC38, 48 h
LN-229 = assay: cells; settings: Homo sapiens, LN-229, 144 h
CDK12/Cyclin K = CDK12/Cyclin K (Homo sapiens, UniProt Q9NYV4)
[2] = target: 14-3-3 protein beta/alpha (Homo sapiens, UniProt P31946)
Cyclin-K = Cyclin-K (Homo sapiens, UniProt O75909); settings: hct-116
A549 [3] = assay: cells; settings: Homo sapiens, A549, 72 h
HCT-116 = assay: cells; settings: Homo sapiens, HCT-116, 72 h
[4] = target: B-cell lymphoma 6 protein (Homo sapiens, UniProt P41182)
Protein cereblon = Protein cereblon (Homo sapiens, UniProt Q96SW2)
[5] = target: Cystic fibrosis transmembrane conductance regulator (Homo sapiens, UniProt P13569)
[6] = target: Protein cereblon/Tyrosine-protein kinase BTK (Homo sapiens, UniProt Q06187+Q96SW2); settings: ramos
HeLa = assay: cells; settings: Homo sapiens, 48 h
A549 [7] = assay: cells; settings: Homo sapiens, A549, 48 h
MCF7 = assay: cells; settings: Homo sapiens, MCF7, 48 h
PC-3 = assay: cells; settings: Homo sapiens, PC-3, 48 h
NCI-H2122 = assay: cells; settings: Homo sapiens, NCI-H2122, 48 h
NCI-H1563 = assay: cells; settings: Homo sapiens, NCI-H1563, 48 h
[8] = target: Cereblon/Casein kinase I alpha (Homo sapiens, UniProt P48729+Q96SW2); settings: molm-13
RNA-binding protein 39 = RNA-binding protein 39 (Homo sapiens, UniProt Q14498)

CDK12/Cyclin K, sequence (O75909 whole entry): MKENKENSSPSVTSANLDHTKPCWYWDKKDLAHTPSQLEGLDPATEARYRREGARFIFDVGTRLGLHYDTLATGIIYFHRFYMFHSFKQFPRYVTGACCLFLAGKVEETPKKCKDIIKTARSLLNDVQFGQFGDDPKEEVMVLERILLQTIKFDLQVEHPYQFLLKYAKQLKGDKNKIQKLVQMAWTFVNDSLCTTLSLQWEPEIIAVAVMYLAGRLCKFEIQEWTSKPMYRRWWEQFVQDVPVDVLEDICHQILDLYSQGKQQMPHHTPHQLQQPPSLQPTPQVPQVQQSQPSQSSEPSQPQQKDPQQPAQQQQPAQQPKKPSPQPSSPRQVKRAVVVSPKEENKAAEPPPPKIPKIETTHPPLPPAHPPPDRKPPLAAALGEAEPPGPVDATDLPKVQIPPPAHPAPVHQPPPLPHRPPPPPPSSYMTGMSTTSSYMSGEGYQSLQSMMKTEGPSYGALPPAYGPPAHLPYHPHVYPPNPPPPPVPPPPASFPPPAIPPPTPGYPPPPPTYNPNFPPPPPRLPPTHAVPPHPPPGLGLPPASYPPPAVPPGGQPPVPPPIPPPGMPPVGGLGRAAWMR
CDK12/Cyclin K, sequence (Q9NYV4 whole entry): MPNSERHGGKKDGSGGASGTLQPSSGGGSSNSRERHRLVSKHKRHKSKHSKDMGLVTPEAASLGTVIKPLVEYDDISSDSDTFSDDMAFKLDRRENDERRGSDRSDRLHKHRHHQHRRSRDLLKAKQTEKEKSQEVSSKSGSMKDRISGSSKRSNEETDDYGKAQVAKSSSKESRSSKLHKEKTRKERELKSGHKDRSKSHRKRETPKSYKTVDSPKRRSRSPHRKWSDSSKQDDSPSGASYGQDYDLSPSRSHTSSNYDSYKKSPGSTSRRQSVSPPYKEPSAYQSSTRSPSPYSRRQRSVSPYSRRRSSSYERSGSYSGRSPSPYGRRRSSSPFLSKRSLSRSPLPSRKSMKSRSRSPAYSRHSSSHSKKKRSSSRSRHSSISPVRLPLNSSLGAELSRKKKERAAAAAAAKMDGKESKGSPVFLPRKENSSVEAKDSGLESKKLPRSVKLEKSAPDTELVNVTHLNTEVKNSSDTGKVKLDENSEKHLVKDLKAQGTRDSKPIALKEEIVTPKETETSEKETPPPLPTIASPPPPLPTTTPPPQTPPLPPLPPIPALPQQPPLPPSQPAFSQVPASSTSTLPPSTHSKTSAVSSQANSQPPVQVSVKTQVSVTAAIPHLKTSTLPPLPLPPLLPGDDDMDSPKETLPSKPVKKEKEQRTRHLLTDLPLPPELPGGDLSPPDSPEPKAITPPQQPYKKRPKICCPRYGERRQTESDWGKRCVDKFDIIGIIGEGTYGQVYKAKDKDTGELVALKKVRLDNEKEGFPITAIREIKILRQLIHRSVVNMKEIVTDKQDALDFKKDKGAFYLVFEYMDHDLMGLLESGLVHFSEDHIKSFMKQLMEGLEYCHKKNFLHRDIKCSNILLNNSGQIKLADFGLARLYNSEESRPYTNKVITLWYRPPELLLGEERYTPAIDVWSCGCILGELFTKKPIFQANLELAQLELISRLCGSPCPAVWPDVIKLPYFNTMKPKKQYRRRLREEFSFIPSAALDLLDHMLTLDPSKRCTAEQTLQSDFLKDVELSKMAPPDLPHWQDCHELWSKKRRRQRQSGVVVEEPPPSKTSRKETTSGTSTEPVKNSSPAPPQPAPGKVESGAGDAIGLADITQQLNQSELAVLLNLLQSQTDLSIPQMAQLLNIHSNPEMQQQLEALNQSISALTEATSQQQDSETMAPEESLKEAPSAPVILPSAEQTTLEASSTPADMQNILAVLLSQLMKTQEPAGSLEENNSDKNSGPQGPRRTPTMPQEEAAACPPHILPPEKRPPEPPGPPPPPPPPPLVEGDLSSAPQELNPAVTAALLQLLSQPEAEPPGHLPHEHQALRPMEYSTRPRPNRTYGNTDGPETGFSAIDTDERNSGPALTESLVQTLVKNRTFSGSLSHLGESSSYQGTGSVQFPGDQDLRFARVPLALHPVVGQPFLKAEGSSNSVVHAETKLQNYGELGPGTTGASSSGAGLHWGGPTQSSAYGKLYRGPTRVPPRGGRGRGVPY
Protein cereblon/Zinc finger protein Helios, sequence (Q96SW2 whole entry): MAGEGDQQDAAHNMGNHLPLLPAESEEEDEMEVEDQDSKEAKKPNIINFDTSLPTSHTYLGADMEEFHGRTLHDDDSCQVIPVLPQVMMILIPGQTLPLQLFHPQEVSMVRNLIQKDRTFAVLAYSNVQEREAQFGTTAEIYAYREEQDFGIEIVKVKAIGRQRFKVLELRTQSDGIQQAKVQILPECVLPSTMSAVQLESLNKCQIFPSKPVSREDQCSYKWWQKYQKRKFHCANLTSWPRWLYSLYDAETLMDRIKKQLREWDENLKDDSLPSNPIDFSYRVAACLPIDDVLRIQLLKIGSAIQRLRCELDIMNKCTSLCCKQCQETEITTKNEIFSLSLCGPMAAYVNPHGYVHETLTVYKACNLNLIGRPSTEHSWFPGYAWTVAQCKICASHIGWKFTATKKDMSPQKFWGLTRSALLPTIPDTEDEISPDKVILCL
Protein cereblon/Zinc finger protein Helios, sequence (Q9UKS7 whole entry): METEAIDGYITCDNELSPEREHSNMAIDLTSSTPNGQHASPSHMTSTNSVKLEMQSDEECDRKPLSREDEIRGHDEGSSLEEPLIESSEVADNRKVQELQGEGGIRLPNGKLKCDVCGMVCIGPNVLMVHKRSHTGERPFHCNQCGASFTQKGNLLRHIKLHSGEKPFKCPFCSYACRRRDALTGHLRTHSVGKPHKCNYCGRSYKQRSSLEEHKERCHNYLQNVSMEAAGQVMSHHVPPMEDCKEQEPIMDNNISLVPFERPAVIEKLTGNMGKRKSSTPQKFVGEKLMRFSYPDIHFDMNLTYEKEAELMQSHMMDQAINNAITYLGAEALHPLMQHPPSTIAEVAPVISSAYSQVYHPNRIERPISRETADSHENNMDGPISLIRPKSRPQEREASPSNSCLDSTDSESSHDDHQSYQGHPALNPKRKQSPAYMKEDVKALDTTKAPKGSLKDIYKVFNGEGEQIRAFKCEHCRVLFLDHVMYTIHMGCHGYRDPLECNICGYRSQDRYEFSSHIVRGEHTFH
Protein cereblon/Tyrosine-protein kinase BTK, sequence (Q06187 whole entry): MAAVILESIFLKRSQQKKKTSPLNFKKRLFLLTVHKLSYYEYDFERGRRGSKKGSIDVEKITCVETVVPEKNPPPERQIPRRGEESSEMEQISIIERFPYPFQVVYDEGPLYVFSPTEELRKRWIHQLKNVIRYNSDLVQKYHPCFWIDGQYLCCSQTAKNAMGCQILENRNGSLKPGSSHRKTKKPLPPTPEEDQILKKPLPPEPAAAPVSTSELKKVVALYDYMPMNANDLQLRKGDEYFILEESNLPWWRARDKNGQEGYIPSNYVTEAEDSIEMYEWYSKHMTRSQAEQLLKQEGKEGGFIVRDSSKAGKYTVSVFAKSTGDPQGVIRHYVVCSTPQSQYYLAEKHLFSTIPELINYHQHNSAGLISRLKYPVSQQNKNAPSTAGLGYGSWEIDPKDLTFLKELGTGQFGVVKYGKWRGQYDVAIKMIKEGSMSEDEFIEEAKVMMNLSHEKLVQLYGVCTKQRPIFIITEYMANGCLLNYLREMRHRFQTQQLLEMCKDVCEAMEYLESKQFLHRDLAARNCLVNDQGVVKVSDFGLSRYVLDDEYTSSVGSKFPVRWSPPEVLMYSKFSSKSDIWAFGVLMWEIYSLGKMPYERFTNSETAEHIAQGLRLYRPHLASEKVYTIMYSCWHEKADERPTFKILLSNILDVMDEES
Protein cereblon/Tyrosine-protein kinase BTK, sequence (Q96SW2 whole entry): as the sequence (Q96SW2 whole entry) above
Cyclin-K, sequence (O75909 whole entry): as the sequence (O75909 whole entry) above
14-3-3 protein beta/alpha, sequence (P31946 whole entry): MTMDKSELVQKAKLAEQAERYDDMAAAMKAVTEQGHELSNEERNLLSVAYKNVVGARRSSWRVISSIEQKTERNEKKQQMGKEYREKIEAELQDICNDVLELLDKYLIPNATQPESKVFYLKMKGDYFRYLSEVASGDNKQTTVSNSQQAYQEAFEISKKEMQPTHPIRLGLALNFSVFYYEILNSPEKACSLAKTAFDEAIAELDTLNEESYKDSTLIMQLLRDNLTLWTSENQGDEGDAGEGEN
Cereblon/Casein kinase I alpha, sequence (P48729 whole entry): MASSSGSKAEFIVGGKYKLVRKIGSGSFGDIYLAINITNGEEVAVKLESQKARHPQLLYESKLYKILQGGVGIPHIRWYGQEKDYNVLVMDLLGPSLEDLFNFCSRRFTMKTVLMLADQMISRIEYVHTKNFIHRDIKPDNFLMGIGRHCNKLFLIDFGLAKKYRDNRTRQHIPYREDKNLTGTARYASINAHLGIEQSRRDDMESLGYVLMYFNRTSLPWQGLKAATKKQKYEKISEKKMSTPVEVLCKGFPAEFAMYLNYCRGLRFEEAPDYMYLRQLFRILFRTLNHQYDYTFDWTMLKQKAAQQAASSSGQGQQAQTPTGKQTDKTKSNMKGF
Cereblon/Casein kinase I alpha, sequence (Q96SW2 whole entry): as the sequence (Q96SW2 whole entry) above
Estrogen receptor, sequence (P03372 whole entry): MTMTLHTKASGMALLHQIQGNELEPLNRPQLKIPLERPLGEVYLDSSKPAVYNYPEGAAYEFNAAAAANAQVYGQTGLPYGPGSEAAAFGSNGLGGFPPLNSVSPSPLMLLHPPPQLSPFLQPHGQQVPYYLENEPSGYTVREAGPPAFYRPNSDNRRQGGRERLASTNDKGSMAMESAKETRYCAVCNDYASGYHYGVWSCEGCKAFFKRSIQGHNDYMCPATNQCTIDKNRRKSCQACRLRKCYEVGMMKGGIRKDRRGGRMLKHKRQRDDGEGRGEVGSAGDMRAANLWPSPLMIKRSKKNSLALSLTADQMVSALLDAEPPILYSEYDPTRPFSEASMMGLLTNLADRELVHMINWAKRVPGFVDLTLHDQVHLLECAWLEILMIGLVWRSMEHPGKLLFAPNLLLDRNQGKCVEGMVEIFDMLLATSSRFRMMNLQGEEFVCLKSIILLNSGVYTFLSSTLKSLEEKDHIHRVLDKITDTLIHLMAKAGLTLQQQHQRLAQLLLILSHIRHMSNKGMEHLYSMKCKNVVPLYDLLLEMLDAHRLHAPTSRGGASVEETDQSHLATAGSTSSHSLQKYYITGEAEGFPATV

DC50 [1]: > 50000 nM
SMILES: O=C1CCC(N2Cc3cc(C4CCNCC4)ccc3C2=O)C(=O)N1 (stereo unspecified)

IC50 (Estrogen receptor): 75000 nM
SMILES: O=C(C1=C(O)C(=O)N(c2ccccc2O)C1c1ccc([N+](=O)[O-])cc1)c1ccccc1 (stereo unspecified)

EC50 (MDA-MB-231): 13800 nM | EC50 (HCC38): 4500 nM
SMILES: O=C(/C=C/C=C/C=C/C1CCCCC1)NC1=C[C@@](O)(/C=C/C=C/C=C/C(=O)NC2=C(O)CCC2=O)[C@@H]2O[C@@H]2C1=O

IC50 (LN-229): 850 nM
SMILES: N#Cc1ccc2nc(NC(=O)Nc3cccc(Cl)c3)sc2c1

IC50 (CDK12/Cyclin K): 400 nM
SMILES: O=C(CSc1nnc2c(n1)[nH]c1ccccc12)Nc1ccc(Cl)cn1

SMILES: O=C(CSc1nc2ccccc2[nH]1)Nc1ccc(Cl)cn1
IC50 (CDK12/Cyclin K): 400 nM

IC50 [2]: 5200 nM
SMILES: O=C(COc1ccccc1P(=O)(O)O)NCCc1ccccc1

DC50 (Cyclin-K): 132 nM | IC50 (A549 [3]): 1300 nM | IC50 (HCT-116): 1300 nM
SMILES: Cc1cccc(Nc2nc(CC(=O)Nc3ncc(C)s3)cs2)n1

IC50 [4]: < 3 nM
SMILES: CNC(=O)COc1cc2cc(Nc3nc(N4C[C@H](C)C[C@H](C)C4)ncc3Cl)ccc2n(C)c1=O

IC50 (Protein cereblon): 360 nM
SMILES: NS(=O)(=O)c1ccc(S(=O)(=O)Nc2cccc3c(Cl)c[nH]c23)cc1

IC50 (LN-229): 2300 nM
SMILES: O=C(Nc1ccc(Cl)c([N+](=O)[O-])c1)Nc1nc2ccccc2s1

IC50 [5]: 36100 nM
SMILES: N=C(N)NCCC[C@@H]1NCc2ccccc2Sc2ccccc2CNC(=O)[C@H](Cc2ccc(O)cc2)NC(=O)[C@H](CCCN)NC1=O

DC50 [1]: 4000 nM
SMILES: O=C1CCC(N2Cc3cc(C4CCN(Cc5ccccc5)CC4)ccc3C2=O)C(=O)N1 (stereo unspecified)

DC50 [6]: 50 nM
SMILES: Nc1ncnc2c1c(-c1ccc(Oc3ccccc3)cc1)nn2[C@H]1CCCN(C(=O)CCCCCCCCNc2ccc3c(c2)C(=O)N(C2CCC(=O)NC2=O)C3=O)C1 (stereo partly specified)

EC50 (HeLa): 10 nM | EC50 (A549 [7]): 10 nM | EC50 (MCF7): 10 nM | EC50 (PC-3): 10 nM | EC50 (NCI-H2122): 10 nM | EC50 (NCI-H1563): 10 nM
SMILES: CCN(CC)c1ccc(C2=NNC(=O)CC2C)cc1[N+](=O)[O-] (stereo unspecified)

DC50 [8]: 11 nM
SMILES: O=C1CCC(N2Cc3c(CNC(=O)c4ccc(F)cc4)cccc3C2=O)C(=O)N1 (stereo unspecified)

IC50 (RNA-binding protein 39): 400 nM
SMILES: Cc1ccc(S(=O)(=O)N/N=C/c2cc(Br)ccc2O)cc1

IC50 (CDK12/Cyclin K): 400 nM
SMILES: Cc1ccc(C(=O)N2CSCC2C(=O)/N=c2/[nH]cc(C)s2)o1 (stereo unspecified)
